In this experiment the target is T1, hVR1 (Homo sapiens, UniProt Q8NER1).
T1 construct: expressed in transfected cells; host or cells: HEK293
The experiment can be described thus: Human VR1 (hVR1) Functional Assay (FLIPR intracellular calcium, capsaicin challenge). It counts as cell-based. Particulars: capsaicin 0.030 μM, HEK293 cells expressing hVR1; for inhibition at 1 µM: test concentration 1 μM. On the technique in general: Calcium assays in cells follow changes in intracellular calcium, usually with a dye or a luminescent sensor.

Bounds are passed on as bounds.

T1 sequence (Q8NER1 whole entry): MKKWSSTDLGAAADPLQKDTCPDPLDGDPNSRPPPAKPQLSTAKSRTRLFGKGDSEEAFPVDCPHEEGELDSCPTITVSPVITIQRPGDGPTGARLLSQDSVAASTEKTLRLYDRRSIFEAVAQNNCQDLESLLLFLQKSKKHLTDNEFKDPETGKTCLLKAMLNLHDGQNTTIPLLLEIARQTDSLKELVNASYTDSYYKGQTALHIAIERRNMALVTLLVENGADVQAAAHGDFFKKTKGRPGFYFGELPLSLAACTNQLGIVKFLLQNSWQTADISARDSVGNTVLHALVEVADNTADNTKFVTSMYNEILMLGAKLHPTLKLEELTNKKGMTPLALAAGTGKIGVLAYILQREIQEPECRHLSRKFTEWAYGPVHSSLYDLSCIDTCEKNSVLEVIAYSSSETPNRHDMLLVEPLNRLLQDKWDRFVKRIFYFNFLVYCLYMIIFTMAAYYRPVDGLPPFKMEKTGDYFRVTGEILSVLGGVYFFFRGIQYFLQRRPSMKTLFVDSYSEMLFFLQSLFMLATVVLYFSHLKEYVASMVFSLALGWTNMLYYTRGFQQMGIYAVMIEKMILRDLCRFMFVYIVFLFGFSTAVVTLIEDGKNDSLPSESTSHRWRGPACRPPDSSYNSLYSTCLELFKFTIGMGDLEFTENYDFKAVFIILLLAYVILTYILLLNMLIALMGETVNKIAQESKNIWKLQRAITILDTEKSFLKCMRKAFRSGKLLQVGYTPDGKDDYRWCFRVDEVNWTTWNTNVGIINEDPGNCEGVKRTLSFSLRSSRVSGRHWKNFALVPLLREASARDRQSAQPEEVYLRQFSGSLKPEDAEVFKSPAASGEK

Consider `OCc1ccccc1-c1cc2nc(/C=C/c3ccc(C(F)(F)F)cc3)[nH]c2cc1C(F)(F)F` [Cpd 58, (E)-(2-{6-trifluoromethyl-2-[2-(4-trifluoromethyl-phenyl)-vinyl]-1H-benzimidazol-5-yl}-phenyl)-methanol], for which the half-inhibitory concentration (IC50) was 95 nM and the inhibition at 1 µM was found to be 87%.
In the case of `CNS(=O)(=O)c1ccccc1-c1ccc2[nH]c(/C=C/c3ccc(F)c(Cl)c3)nc2c1` [Cpd 321, (E)-2-{2-[2-(3-chloro-4-fluoro-phenyl)-vinyl]-1H-benzimidazol-5-yl}-N-methyl-benzenesulfonamide], the IC50 turned out to be 18 nM and the inhibition at 1 µM stood at 100%.
`NS(=O)(=O)c1ccccc1-c1ccc2[nH]c(/C=C/c3ccc(Cl)c(Cl)c3)nc2c1` [Cpd 427, (E)-2-{2-[2-(3,4-dichloro-phenyl)-vinyl]-1H-benzimidazol-5-yl}-benzenesulfonamide]: the IC50 came out at 13 nM and the inhibition at 1 µM was 98%.
In the same order, the values of `CS(=O)(=O)Nc1ccccc1-c1ccc2[nH]c(/C=C/c3ccc4ccccc4c3)nc2c1` [Cpd 415, (E)-N-{2-[2-(2-naphthalen-2-yl-vinyl)-1H-benzimidazol-5-yl]-phenyl}-methanesulfonamide] are 150 nM and 95%.
`NS(=O)(=O)c1ccccc1-c1ccc2[nH]c(/C=C/c3ccc4ccccc4c3)nc2c1` [Cpd 433, (E)-2-[2-(2-naphthalen-2-yl-vinyl)-1H-benzimidazol-5-yl]-benzenesulfonamide]: the IC50 was 10 nM and the inhibition at 1 µM turned out to be 98%.
As for `CNS(=O)(=O)c1ccccc1-c1ccc2[nH]c(/C=C/c3ccc(C)cc3)nc2c1` [Cpd 314, (E)-N-methyl-2-[2-(2-p-tolyl-vinyl)-1H-benzimidazol-5-yl]-benzenesulfonamide], the half-inhibitory concentration (IC50) was determined as 18 nM and the inhibition at 1 µM was 100%.
Take `NS(=O)(=O)c1ccccc1-c1ccc2[nH]c(CCc3cccc(OC(F)(F)F)c3)nc2c1` [Cpd 391, 2-{2-[2-(3-trifluoromethoxy-phenyl)-ethyl]-1H-benzimidazol-5-yl}-benzenesulfonamide]: the IC50 is 8 nM and the inhibition at 1 µM is 95%.
For the compound `CC(C)(C)OC(=O)Nc1ccccc1-c1ccc2[nH]c(/C=C/c3ccc(C(F)(F)F)cc3)nc2c1` [Cpd 479, (E)-(2-{2-[2-(4-trifluoromethyl-phenyl)-vinyl]-1H-benzimidazol-5-yl}-phenyl)-carbamic acid tert-butyl ester], the inhibition at 1 µM stood at 12%.
Turning to `NS(=O)(=O)c1ccccc1-c1ccc2[nH]c(CCc3cccc(C(F)(F)F)c3F)nc2c1` [Cpd 405, 2-{2-[2-(2-fluoro-3-trifluoromethyl-phenyl)-ethyl]-1H-benzimidazol-5-yl}-benzenesulfonamide], the half-maximal inhibitory concentration (IC50) stood at 20 nM and the inhibition at 1 µM turned out to be 95%.
In the same order, the values of `Cc1ccc(/C=C/c2nc3cc(-c4ccccc4S(N)(=O)=O)ccc3[nH]2)cc1` [Cpd 430, (E)-2-[2-(2-p-tolyl-vinyl)-1H-benzimidazol-5-yl]-benzenesulfonamide] are 9 nM and 100%.
With `CNS(=O)(=O)c1ccccc1-c1ccc2[nH]c(/C=C/c3cc(C(F)(F)F)ccc3C(F)(F)F)nc2c1` [Cpd 334, (E)-2-{2-[2-(2,5-bis-trifluoromethyl-phenyl)-vinyl]-1H-benzimidazol-5-yl}-N-methyl-benzenesulfonamide], the 50% inhibitory concentration (IC50) stood at 178 nM and the inhibition at 1 µM is 94%.
Regarding `NS(=O)(=O)c1ccccc1-c1ccc2[nH]c(CCc3ccc(OC(F)(F)F)cc3)nc2c1` [Cpd 129, 2-{2-[2-(4-trifluoromethoxy-phenyl)-ethyl]-1H-benzimidazol-5-yl}-benzenesulfonamide], the 50% inhibitory concentration (IC50) is 34 nM and the inhibition at 1 µM was determined as 96%.
Consider `CS(=O)(=O)Nc1ccccc1-c1ccc2[nH]c(/C=C/c3ccc(OCC(F)(F)C(F)(F)F)cc3)nc2c1` [Cpd 101, (E)-N-[2-(2-{2-[4-(2,2,3,3,3-pentafluoro-propoxy)-phenyl]-vinyl}-1H-benzimidazol-5-yl)-phenyl]-methanesulfonamide], for which the IC50 is over 500 nM.
As to `CC(O)c1ccccc1-c1ccc2[nH]c(/C=C/c3ccc(C(F)(F)F)cc3)nc2c1` (stereo not shown) [Cpd 16, (E)-1-(2-{2-[2-(4-trifluoromethyl-phenyl)-vinyl]-1H-benzimidazol-5-yl}-phenyl)-ethanol], the IC50 was 45 nM and the inhibition at 1 µM stood at 100%.
For `CC(C)(O)c1ccccc1-c1ccc2[nH]c(C#Cc3ccccc3)nc2c1` [Cpd 489, 2-[2-(2-phenylethynyl-1H-benzimidazol-5-yl)-phenyl]-propan-2-ol], the IC50 came to 2 nM and the inhibition at 1 µM was found to be 96%.
For `NS(=O)(=O)c1ccccc1-c1ccc2[nH]c(/C=C/c3ccc(Cl)c(C(F)(F)F)c3)nc2c1` [Cpd 378, (E)-2-{2-[2-(4-chloro-3-trifluoromethyl-phenyl)-vinyl]-1H-benzimidazol-5-yl}-benzenesulfonamide], the IC50 was 12 nM and the inhibition at 1 µM turned out to be 100%.
Take `CNS(=O)(=O)c1ccccc1-c1ccc2[nH]c(/C=C/c3cc(F)ccc3F)nc2c1` [Cpd 326, (E)-2-{2-[2-(2,5-difluoro-phenyl)-vinyl]-1H-benzimidazol-5-yl}-N-methyl-benzenesulfonamide]: the half-inhibitory concentration (IC50) turned out to be 157 nM and the inhibition at 1 µM stood at 89%.
For the compound `CC(=O)c1ccccc1-c1ccc2[nH]c(/C=C/c3ccc(OC(F)(F)F)cc3)nc2c1` [Cpd 20, (E)-1-(2-{2-[2-(4-trifluoromethoxy-phenyl)-vinyl]-1H-benzimidazol-5-yl}-phenyl)-ethanone], the half-inhibitory concentration (IC50) is 320 nM.
`NC(=O)c1ccccc1-c1ccc2[nH]c(/C=C/c3ccc(C(F)(F)F)cc3)nc2c1` [Cpd 13, (E)-2-{2-[2-(4-trifluoromethyl-phenyl)-vinyl]-1H-benzimidazol-5-yl}-benzamide]: the 50% inhibitory concentration (IC50) is 310 nM and the inhibition at 1 µM amounted to 82%.
For `CNS(=O)(=O)c1ccccc1-c1ccc2[nH]c(/C=C/c3ccc4cc[nH]c4c3)nc2c1` [Cpd 454, (E)-2-{2-[2-(1H-indol-6-yl)-vinyl]-1H-benzimidazol-5-yl}-N-methyl-benzenesulfonamide], the inhibition at 1 µM was 36%.
For `CNS(=O)(=O)c1ccccc1-c1ccc2[nH]c(/C=C/c3ccc(Cl)cc3)nc2c1` [Cpd 347, (E)-2-{2-[2-(4-chloro-phenyl)-vinyl]-1H-benzimidazol-5-yl}-N-methyl-benzenesulfonamide], the IC50 stood at 44 nM and the inhibition at 1 µM was found to be 100%.
For `CNS(=O)(=O)c1ccccc1-c1ccc2[nH]c(/C=C/c3ccc(C(F)(F)F)cc3C(F)(F)F)nc2c1` [Cpd 455, (E)-2-{2-[2-(2,4-bis-trifluoromethyl-phenyl)-vinyl]-1H-benzimidazol-5-yl}-N-methyl-benzenesulfonamide] the same measures were 17 nM and 100%.
Consider `NS(=O)(=O)c1ccccc1-c1ccc2[nH]c(C3CC3c3ccc(C(F)(F)F)cc3)nc2c1` (stereo not shown) [Cpd 190, 2-{2-[2-(4-trifluoromethyl-phenyl)-cyclopropyl]-1H-benzimidazol-5-yl}-benzenesulfonamide], for which the IC50 was determined as 38 nM and the inhibition at 1 µM is 94%.
As for `CNS(=O)(=O)c1ccccc1-c1ccc2[nH]c(/C=C/c3ccc(C(F)(F)F)cc3F)nc2c1` [Cpd 320, (E)-2-{2-[2-(2-fluoro-4-trifluoromethyl-phenyl)-vinyl]-1H-benzimidazol-5-yl}-N-methyl-benzenesulfonamide], the IC50 is 13 nM and the inhibition at 1 µM turned out to be 100%.
In the case of `CNS(=O)(=O)c1ccccc1-c1ccc2[nH]c(/C=C/c3ccc(F)c(F)c3)nc2c1` [Cpd 329, (E)-2-{2-[2-(3,4-difluoro-phenyl)-vinyl]-1H-benzimidazol-5-yl}-N-methyl-benzenesulfonamide], the half-maximal inhibitory concentration (IC50) was 27 nM and the inhibition at 1 µM was determined as 98%.
In the same order, the values of `CNS(=O)(=O)c1ccccc1-c1ccc2[nH]c(CCc3cccc(C(F)(F)F)c3)nc2c1` [Cpd 350, N-methyl-2-{2-[2-(3-trifluoromethyl-phenyl)-ethyl]-1H-benzimidazol-5-yl}-benzenesulfonamide] are 33 nM and 100%.
For the compound `CC(C)(O)c1ccccc1-c1ccc2[nH]c(/C=C/c3ccccc3)nc2c1` [Cpd 468, (E)-2-[2-(2-styryl-1H-benzimidazol-5-yl)-phenyl]-propan-2-ol], the IC50 is 8 nM and the inhibition at 1 µM was found to be 97%.
Take `O=C(Nc1ccccc1-c1ccc2[nH]c(/C=C/c3ccc(C(F)(F)F)cc3)nc2c1)C(F)(F)F` [Cpd 458, (E)-2,2,2-trifluoro-N-(2-{2-[2-(4-trifluoromethyl-phenyl)-vinyl]-1H-benzimidazol-5-yl}-phenyl)-acetamide]: the inhibition at 1 µM came to 15%.
In the case of `CNS(=O)(=O)c1ccccc1-c1ccc2[nH]c(/C=C/c3cc(F)cc(F)c3)nc2c1` [Cpd 328, (E)-2-{2-[2-(3,5-difluoro-phenyl)-vinyl]-1H-benzimidazol-5-yl}-N-methyl-benzenesulfonamide], the IC50 was found to be 35 nM and the inhibition at 1 µM was found to be 99%.
As for `FC(F)(F)c1ccc(/C=C/c2nc3cc(-c4ccccc4C(F)(F)F)ccc3[nH]2)cc1` [Cpd 487, (E)-5-(2-trifluoromethyl-phenyl)-2-[2-(4-trifluoromethyl-phenyl)-vinyl]-1H-benzimidazole], the inhibition at 1 µM is 20%.
As for `CC(=O)c1ccccc1-c1ccc2[nH]c(/C=C/c3ccc(SC(F)(F)F)cc3)nc2c1` [Cpd 39, (E)-1-(2-{2-[2-(4-trifluoromethylsulfanyl-phenyl)-vinyl]-1H-benzimidazol-5-yl}-phenyl)-ethanone], the IC50 was found to be 200 nM and the inhibition at 1 µM came to 98%.
`Nc1ccccc1-c1ccc2[nH]c(/C=C/c3ccc(C(F)(F)F)cc3)nc2c1` [Cpd 465, (E)-2-{2-[2-(4-trifluoromethyl-phenyl)-vinyl]-1H-benzimidazol-5-yl}-phenylamine]: the IC50 worked out at 363 nM and the inhibition at 1 µM came to 75%.

As a reminder, the IC50 is the point on the concentration scale where inhibition reaches its midpoint. By inhibition is commonly meant the share of the control response that was lost under treatment.

The values are drawn from patent US7951829B2, “Benzimidazole modulators of VR1” (Janssen Pharmaceutica NV, priority 2006, dated 2011).
